# Assay results from paper PMC10734772 (Turkish Journal of Chemistry, 2021).
# Assays:
# Assay type in all cases: cell-based
# K562 = test: MTT assay, K562 cells; details: Homo sapiens, 24 h, MTT, read-out: Viability rate
# Nalm-6 = test: MTT assay, Nalm-6 cells; details: Homo sapiens, 24 h
# Experimental: K562, Jurkat and Molt-4 cell lines were seeded as 4x10^5/ml, Reh and Nalm-6 cell lines were seeded 5x10^5/ml, Hek293T cell line was seed as 2x10^5/ml.
# MTT assay is a 3-day test. On the first day, cell count was performed in Bio Rad TC-20 device with the help of trypan blue, each cell line was prepared by diluting to the specified concentrations and seeded in a 96-well plate as 100μL to each well and incubated for 1 day.
# On the second day, stock solutions were subsequently diluted to various concentrations (0.3–200 μM) with related medium prior to experiments. Specified concentrations of the compounds were seeded in a 96-well plate as 100μL to each well and incubated for 24 h.
# After incubation (on the third day), to precipitate leukemia cells, the cell plate was centrifuged at 1500 rpm for 5 min. […] The 50 μl of supernatant was discarded from each well and 100 μl of DMSO was added to dissolve the formazan. Plates were shaken for 45 min to dissolve the dye. Then the optical density of each well was measured by using Thermo VarioSkan Flush Multimode Reader Quantum ST5-1100 at 570 nm wavelength.
# Subsequently, viability rate of the cells at each concentration, as percentage, was determined by following formula (1):
# Viability rate (%)=100-[(OD(control)-OD(sample))/OD(control)×100].OD=Optical Density
# The IC50 values were calculated by using GraphPad Prism. All the data presented as the mean of 6 replicates. […] Statistical analysis was performed using dose-response inhibition, log(inhibitor) vs response-variable slope, least squares (ordinary) fit.
# Molt-4 = test: MTT assay, Molt-4 cells; details: Homo sapiens, MOLT-4, 24 h, read-out: Viability rate
# Reh = test: MTT assay, Reh cells; details: Homo sapiens, 24 h, read-out: Viability rate
# Jurkat = test: MTT assay, Jurkat cells; details: Homo sapiens, 24 h, read-out: Viability rate
# [1] = MTT assay, Hek293T non-leukemic control cells; details: human, read-out: Viability rate
# [2] = test system: K562, Nalm-6, Molt-4, Reh, Jurkat, Hek293T cell lines; test: MTT assay, overall judgement over all cell lines; details: overall judgement in words; for 6 and 10: on all cell lines, except Reh
# In short: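 MTT viability assay run across a range of compound concentrations in leukemic lines, BCR-ABL positive K562 and BCR-ABL negative Nalm-6, Molt-4, Reh, Jurkat, plus non-leukemic Hek293T. Viability rate calculated per concentration.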
smiles,measurement,setting,value
"Cc1ccnc(Nc2cc(NC(=O)c3ccc(CN4CCOCC4)cc3)ccc2C)c1 [Compound 9, N-(4-Methyl-3-((4-methylpyridin-2-yl)amino)phenyl)-4-(morhpolinomethyl)benzamide]",viability at 0.3 µM,"K562; K562, 0.3 μM",79.9 ± 0.09%
same,viability at 0.5 µM,"K562; K562, 0.5 μM",78.5 ± 0.03%
same,viability at 1 µM,"K562; K562, 1 μM",77.3 ± 0.08%
same,viability at 3 µM,"K562; K562, 3 μM",77 ± 0.04%
same,viability at 5 µM,"K562; K562, 5 μM",75.4 ± 0.09%
same,viability at 10 µM,"K562; K562, 10 μM",73.2 ± 0.08%
same,viability at 15 µM,"K562; K562, 15 μM",72 ± 0.06%
same,viability at 20 µM,"K562; K562, 20 μM",69.1 ± 0.03%
same,viability at 30 µM,"K562; K562, 30 μM",69.7 ± 0.07%
same,viability at 50 µM,"K562; K562, 50 μM",61.2 ± 0.08%
same,viability at 70 µM,"K562; K562, 70 μM",58.1 ± 0.1%
same,viability at 100 µM,"K562; K562, 100 μM",51.3 ± 0.06%
same,viability at 150 µM,"K562; K562, 150 μM",49.7 ± 0.05%
same,viability at 200 µM,"K562; K562, 200 μM",45%
same,viability at 0.3 µM,"Nalm-6; Nalm-6, 0.3 μM, MTT, read-out: Viability rate",86.4 ± 0.05%
same,viability at 0.5 µM,"Nalm-6; Nalm-6, 0.5 μM, MTT, read-out: Viability rate",85.2 ± 0.05%
same,viability at 1 µM,"Nalm-6; Nalm-6, 1 μM, MTT, read-out: Viability rate",72.7 ± 0.04%
same,viability at 3 µM,"Nalm-6; Nalm-6, 3 μM, MTT, read-out: Viability rate",64.5 ± 0.02%
same,viability at 5 µM,"Nalm-6; Nalm-6, 5 μM, MTT, read-out: Viability rate",62.6 ± 0.04%
same,viability at 10 µM,"Nalm-6; Nalm-6, 10 μM, MTT, read-out: Viability rate",53.2 ± 0.03%
same,viability at 15 µM,"Nalm-6; Nalm-6, 15 μM, MTT, read-out: Viability rate",50.1 ± 0.03%
same,viability at 20 µM,"Nalm-6; Nalm-6, 20 μM, MTT, read-out: Viability rate",49.2 ± 0.01%
same,viability at 30 µM,"Nalm-6; Nalm-6, 30 μM, MTT, read-out: Viability rate",48.1 ± 0.01%
same,viability at 50 µM,"Nalm-6; Nalm-6, 50 μM, MTT, read-out: Viability rate",43.9 ± 0.01%
same,viability at 70 µM,"Nalm-6; Nalm-6, 70 μM, MTT, read-out: Viability rate",42.8 ± 0.01%
same,viability at 100 µM,"Nalm-6; Nalm-6, 100 μM, MTT, read-out: Viability rate",42.5 ± 0.01%
same,viability at 150 µM,"Nalm-6; Nalm-6, 150 μM, MTT, read-out: Viability rate",42.5 ± 0.01%
same,viability at 200 µM,"Nalm-6; Nalm-6, 200 μM, MTT, read-out: Viability rate",39.2%
same,IC50,"Nalm-6; Nalm-6, MTT, range 0.3–200 μM, six replicates",1640 nM
same,viability at 0.3 µM,"Molt-4; Molt-4, 0.3 μM",93.2 ± 0.17%
same,viability at 0.5 µM,"Molt-4; Molt-4, 0.5 μM",87.8 ± 0.05%
same,viability at 1 µM,"Molt-4; Molt-4, 1 μM",78.4 ± 0.11%
same,viability at 3 µM,"Molt-4; Molt-4, 3 μM",72.7 ± 0.04%
same,viability at 5 µM,"Molt-4; Molt-4, 5 μM",71.7 ± 0.07%
same,viability at 10 µM,"Molt-4; Molt-4, 10 μM",69.3 ± 0.04%
same,viability at 15 µM,"Molt-4; Molt-4, 15 μM",68.9 ± 0.05%
same,viability at 20 µM,"Molt-4; Molt-4, 20 μM",63.5 ± 0.04%
same,viability at 30 µM,"Molt-4; Molt-4, 30 μM",62 ± 0.03%
same,viability at 50 µM,"Molt-4; Molt-4, 50 μM",61.5 ± 0.07%
same,viability at 70 µM,"Molt-4; Molt-4, 70 μM",59.8 ± 0.05%
same,viability at 100 µM,"Molt-4; Molt-4, 100 μM",59.5 ± 0.08%
same,viability at 150 µM,"Molt-4; Molt-4, 150 μM",58.6 ± 0.06%
same,viability at 200 µM,"Molt-4; Molt-4, 200 μM",54.7 ± 0.03%
same,viability at 0.3 µM,Reh; 0.3 μM,103.8 ± 0.01%
same,viability at 0.5 µM,Reh; 0.5 μM,101.3 ± 0.03%
same,viability at 1 µM,Reh; 1 μM,100.4 ± 0.01%
same,viability at 3 µM,Reh; 3 μM,100.5 ± 0.02%
same,viability at 5 µM,Reh; 5 μM,101.8 ± 0.03%
same,viability at 10 µM,Reh; 10 μM,103.4 ± 0.02%
same,viability at 15 µM,Reh; 15 μM,100.2 ± 0.02%
same,viability at 20 µM,Reh; 20 μM,99 ± 0.02%
same,viability at 30 µM,Reh; 30 μM,91.4 ± 0.01%
same,viability at 50 µM,Reh; 50 μM,88.2 ± 0.02%
same,viability at 70 µM,Reh; 70 μM,84.7 ± 0.03%
same,viability at 100 µM,Reh; 100 μM,87.1 ± 0.02%
same,viability at 150 µM,Reh; 150 μM,85 ± 0.01%
same,viability at 200 µM,Reh; 200 μM,82 ± 0.02%
same,viability at 0.3 µM,Jurkat; 0.3 μM,82.3 ± 0.05%
same,viability at 0.5 µM,Jurkat; 0.5 μM,82 ± 0.06%
same,viability at 1 µM,Jurkat; 1 μM,82 ± 0.05%
same,viability at 3 µM,Jurkat; 3 μM,81.7 ± 0.05%
same,viability at 5 µM,Jurkat; 5 μM,83 ± 0.04%
same,viability at 10 µM,Jurkat; 10 μM,81.9 ± 0.02%
same,viability at 15 µM,Jurkat; 15 μM,80.4 ± 0.02%
same,viability at 20 µM,Jurkat; 20 μM,79 ± 0.04%
same,viability at 30 µM,Jurkat; 30 μM,72.9 ± 0.07%
same,viability at 50 µM,Jurkat; 50 μM,68.1 ± 0.01%
same,viability at 70 µM,Jurkat; 70 μM,65.1 ± 0.02%
same,viability at 100 µM,Jurkat; 100 μM,49.6 ± 0.07%
same,viability at 150 µM,Jurkat; 150 μM,46.9 ± 0.05%
same,viability at 200 µM,Jurkat; 200 μM,39.1 ± 0.04%
same,"viability at 24 h, 0.3 µM","[1]; Hek293T cells (non-leukemic control cell line), 0.3 μM",91.7 ± 0.07%
same,"viability at 24 h, 0.5 µM","[1]; Hek293T cells (non-leukemic control cell line), 0.5 μM",89.8 ± 0.07%
same,"viability at 24 h, 3 µM","[1]; Hek293T cells (non-leukemic control cell line), 3 μM",87.4 ± 0.07%
same,"viability at 24 h, 5 µM","[1]; Hek293T cells (non-leukemic control cell line), 5 μM",86.2 ± 0.03%
same,"viability at 24 h, 10 µM","[1]; Hek293T cells (non-leukemic control cell line), 10 μM",79.3 ± 0.05%
same,"viability at 24 h, 15 µM","[1]; Hek293T cells (non-leukemic control cell line), 15 μM",78.3 ± 0.03%
same,"viability at 24 h, 20 µM","[1]; Hek293T cells (non-leukemic control cell line), 20 μM",76.5 ± 0.05%
same,"viability at 24 h, 30 µM","[1]; Hek293T cells (non-leukemic control cell line), 30 μM",68.9 ± 0.03%
same,"viability at 24 h, 50 µM","[1]; Hek293T cells (non-leukemic control cell line), 50 μM",62.2 ± 0.02%
same,"viability at 24 h, 70 µM","[1]; Hek293T cells (non-leukemic control cell line), 70 μM",56.2 ± 0.04%
same,"viability at 24 h, 100 µM","[1]; Hek293T cells (non-leukemic control cell line), 100 μM",54.8 ± 0.02%
same,"viability at 24 h, 150 µM","[1]; Hek293T cells (non-leukemic control cell line), 150 μM",46.9 ± 0.02%
same,"viability at 24 h, 200 µM","[1]; Hek293T cells (non-leukemic control cell line), 200 μM",42.8 ± 0.02%
same,"viability at 24 h, 1 µM","[1]; Hek293T cells, 1 μM",89.5 ± 0.05%
same,anticancer activity according to MTT assay results,[2],relatively lower activity
